Experimental data taken from patent EP4692091A1, “CA[…], AND PHARMACEUTICAL COMPOSITION, PREPARATION METHOD THEREFOR AND USE THEREOF” (Changchun Genescience Pharmaceutical Co., Ltd., priority 2023, dated 2024).
≈ marks a conversion by molar mass, not a printed value. Read-outs that look alike come from different tables or passages of the source.

Legend:
MDA-MB-468 = assay: Inhibition of proliferation of MDA-MB-468 cells by test compounds (CellTiter-Glo, 72 h); assay type: cell-based; conditions: Homo sapiens, MDA-MB-468, 72 h, MDA-MB-468, 72 h incubation
In short: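 Cells plated, allowed to adhere, then treated with compounds (final DMSO 0.33%) for 72 h at 37°C. Viability read by CellTiter-Glo luminescence after 30 min at room temperature; IC50 from four-parameter nonlinear fit.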

NCI-N87 = assay: Inhibition of proliferation of NCI-N87 cells by test compounds (CellTiter-Glo, 72 h); assay type: cell-based; conditions: Homo sapiens, NCI-N87, 72 h, NCI-N87, 72 h incubation
In short: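 NCI-N87 cells were treated after adhesion with compound (final DMSO 0.33%) for 72 h at 37°C. Viability was read as CellTiter-Glo luminescence, and IC50 came from a four-parameter nonlinear fit.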

[1] = Kinetic solubility test in PBS 7.4; assay type: physicochemical; conditions: pH 7.4, aqueous buffer
Description: 10 mM stock solutions of the test substances 6-2, 11-2, 17-2, Dxd, and the control drugs progesterone and diclofenac were prepared using DMSO respectively.
15 µL of 10 mM stock solution of each of the test substances was added to a corresponding position of a corresponding 96-well plate in a specified sequence. 485 µL of the PBS 7.4 was added to a corresponding vial on a sample plate. The experiment was run in duplicate. Each vial was additionally provided with a stirring rod and was plugged. Then, the sample plate was transferred in a thermostatic mixer, and oscillated at a revolving speed of 1,100 rpm at 25°C for 2 h. 2 h later, the plug was removed, the stirring rod was attracted away with a large magnet, and then the sample was transferred from the sample plate to the filter plate. Negative pressure was generated using a vacuum pump to filter the sample. 5 µL of filtrate and 5 µL of blank DMSO were transferred to another sample plate, and then 490 µL of internal standard water (acetonitrile:water=1:1) containing the internal standard was added. Depending on peak shapes, a certain proportion of internal standard water may be used to dilute the sample diluent to give better peak shapes. […]
The sample filtrate was analyzed and quantified by qualitative and quantitative LC/MS of standard substance peaks at known concentrations. […]

[2] = Stability of compounds in human plasma; assay type: in vitro ADME; conditions: 37°C, 5 µmol/L
Description: • (1) 199 µL of human plasma was added to the culture plate of each cell. The culture plate was preheated to 37°C, and kept at this temperature for 15 min. • (2) After preincubation, 1 µL of 1 mmol/L each test compound and 1 µL of 1 mmol/L control compound were added to 199 µL of plasma, so that a final concentration of each test compound was 5 µmol/L and that of the control compound was 5 µmol/L. The final concentration of the organic solvent was 0.5%. The experiment would be duplicated twice. • (3) Reaction samples were incubated at 37°C. • (4) The reaction was stopped by adding 600 µL of cold methanol containing the internal standard at 0, 1, 2, 6, and 24 h. Each sample was vortex mixed for 10 min, and then centrifuged at 3,220 g for 30 min to precipitate the protein. […] Based on the signal response and peak shapes of liquid chromatography-mass spectrometry (LC-MS), the supernatant would be diluted with ultrapure water.
All calculations were performed using Microsoft Excel. The peak area ratio was determined from the chromatogram of extracted ions. The percentage of compounds remaining at each time point was calculated as per the following formula: Residual percentagetmin (%) = peak area ratiotmin /peak areat0 × 100 [formula]

[3] = Stability of compounds in human plasma; assay type: in vitro ADME; conditions: 37°C, 5 µmol/L, read-out: Residual percentage (%)
CYP2D6 = CYP2D6 (Homo sapiens, UniProt P10635); assay: CYP inhibition in human hepatomicrosomes, CYP2D6
CYP2D6, sequence (P10635 whole entry): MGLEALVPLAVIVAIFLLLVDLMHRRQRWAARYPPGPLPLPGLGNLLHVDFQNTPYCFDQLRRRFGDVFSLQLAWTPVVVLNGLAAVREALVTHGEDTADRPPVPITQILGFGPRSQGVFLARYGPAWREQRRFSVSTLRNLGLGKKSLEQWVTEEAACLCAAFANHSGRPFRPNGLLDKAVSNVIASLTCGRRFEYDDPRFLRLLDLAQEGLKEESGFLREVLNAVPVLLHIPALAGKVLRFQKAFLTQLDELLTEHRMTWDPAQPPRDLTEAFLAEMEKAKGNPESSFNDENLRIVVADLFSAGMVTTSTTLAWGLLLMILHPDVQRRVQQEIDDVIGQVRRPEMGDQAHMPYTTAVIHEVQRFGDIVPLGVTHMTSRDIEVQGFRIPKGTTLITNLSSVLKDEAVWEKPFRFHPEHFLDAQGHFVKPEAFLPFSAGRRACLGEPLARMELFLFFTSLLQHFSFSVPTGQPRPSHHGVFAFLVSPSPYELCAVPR

CYP3A4 = CYP3A4 (Homo sapiens, UniProt P08684); assay: CYP inhibition in human hepatomicrosomes, CYP3A4
CYP3A4, sequence (P08684 whole entry): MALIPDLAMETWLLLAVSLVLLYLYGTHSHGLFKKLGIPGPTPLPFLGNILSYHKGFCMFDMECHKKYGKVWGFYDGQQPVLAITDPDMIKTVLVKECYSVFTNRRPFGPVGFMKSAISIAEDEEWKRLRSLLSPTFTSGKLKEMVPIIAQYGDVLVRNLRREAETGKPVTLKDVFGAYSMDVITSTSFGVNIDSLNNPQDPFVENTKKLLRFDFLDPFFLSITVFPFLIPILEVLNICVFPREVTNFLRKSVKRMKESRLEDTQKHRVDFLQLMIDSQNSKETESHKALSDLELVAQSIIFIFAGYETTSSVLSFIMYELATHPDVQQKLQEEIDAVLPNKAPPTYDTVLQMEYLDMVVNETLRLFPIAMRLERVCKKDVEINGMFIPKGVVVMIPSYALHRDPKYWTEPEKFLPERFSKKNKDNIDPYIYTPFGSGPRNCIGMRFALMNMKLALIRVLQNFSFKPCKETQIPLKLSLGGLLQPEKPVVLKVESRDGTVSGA

For `CC[C@@]1(O)C(=O)OCc2c1cc1n(c2=O)Cc2c-1nc1cc(F)c(C)c3c1c2[C@@H](NC(=O)CO)CC3` [Dxd], which IC50 (MDA-MB-468) is on record?
Its IC50 is 4.6 nM.

What about the IC50 (NCI-N87) of the same compound?
Its IC50 is 11 nM.

What about the solubility at 2 h [1] of the same compound?
Its solubility at 2 h is 11.3 µM (≈ 5.58 µg/mL).

What about the “Residual percentage (%)” value ([2]; 0 h) of the same compound?
The value was 100.00%.

And the remaining at 1 h, 5 µM ([2]; 1 h, read-out: Residual percentage (%))?
The remaining at 1 h, 5 µM was 89.4%.

What about the remaining at 2 h, 5 µM ([2]; 2 h, read-out: Residual percentage (%)) of the same compound?
The remaining at 2 h, 5 µM was 86.8%.

What about the remaining at 6 h, 5 µM ([2]; 6 h, read-out: Residual percentage (%)) of the same compound?
The remaining at 6 h, 5 µM was 86.4%.

And the remaining at 24 h, 5 µM ([2]; 24 h, read-out: Residual percentage (%))?
Its remaining at 24 h, 5 µM is 82.3%.

And the remaining at 4 h, 5 µM [3]?
Its remaining at 4 h, 5 µM is 83.6%.

What about the IC50 (CYP2D6) of the same compound?
Its IC50 is greater than 30000 nM.

What about the IC50 (CYP3A4) of the same compound?
The IC50 was greater than 30 µM.

What about the IC50 (CYP3A4; read-out: 3A4M (IC50 µM), human hepatomicrosomes, substrate Midazolam) of the same compound?
Its IC50 is greater than 30 µM.
